Experimental data from US20240124406A1, “INHIBITORS OF TRANSCRIPTIONAL ENHANCED ASSOCIATE DOMAIN (TEAD) AND USES THEREOF” (Dana-Farber Cancer Institute, Inc., priority 2020, published 2024).

System: NCI-H226 cells
Experiment: Antiproliferation assay (2D adherent cell viability, CellTiter-Glo)
Type: cell-based
Conditions: Homo sapiens, 120 h, 5 days treatment, cell viability by CellTiter-Glo
Procedure: The compounds were evaluated in vitro. In addition, an anti-proliferation assay was performed using NCI-H226 cells (FIG. 2).
The mixture of 2-fluoro-5-nitrobenzonitrile (1 g, 6.0 mmol), cyclohexanamine (0.6For 2D adherent cell viability experiment, the cells were seeded at 384-well plate (Corning, no. 3570) at the density of 200 cells/well. The next day, compounds were added using Janus workstation (PerkinElmer). After 5 days treatment, the cell viability was measured by CellTiter-Glo kit (Promega, no. G7570) as the manufacturer recommended.

C=CC(=O)Nc1ccc(NC2CCC(F)(F)CC2)c(-c2ncccn2)c1 [Compound A-5, N-(4-(4,4-difluorocyclohexylamino)-3-(pyrimidin-2-yl)phenyl)acrylamide]
IC50: 8 nM

C=CC(=O)Nc1ccc(Nc2ccc(C(F)(F)F)cc2)c(-c2nccc(N3CCC(O)C3)n2)c1 (stereo not shown) [Compound A-7, N-(3-(4-(3-hydroxypyrrolidin-1-yl)pyrimidin-2-yl)-4-(4-(trifluoromethyl)phenylamino)phenyl)acrylamide]
IC50: 17 nM

C=CC(=O)Nc1ccc(Nc2ccc(C(F)(F)F)cc2)c(-c2nccc(OCCO)n2)c1 [Compound A-11, N-(3-(4-(2-hydroxyethoxy)pyrimidin-2-yl)-4-(4-(trifluoromethyl)phenylamino)phenyl)acrylamide]
IC50: 40 nM

C=CC(=O)Nc1cnc(Oc2ccc(C(F)(F)F)cc2)c(-c2ncccn2)c1 [Compound A-12, N-(5-(pyrimidin-2-yl)-6-(4-(trifluoromethyl)phenoxy)pyridin-3-yl)acrylamide]
IC50: 14 nM

C=CC(=O)Nc1ccc(Nc2ccc(C(F)(F)F)cc2)c(-c2cccnn2)c1 [Compound A-13, N-(3-(pyridazin-3-yl)-4-(4-(trifluoromethyl)phenylamino)phenyl) acrylamide]
IC50: 31 nM

C=CC(=O)Nc1ccc(Nc2ccc(C(F)(F)F)cc2)c(-c2cc[nH]c(=O)c2)c1 [Compound A-14, N-(3-(2-oxo-1,2-dihydropyridin-4-yl)-4-(4-(trifluoromethyl)phenylamino)phenyl)acrylamide]
IC50: 1100 nM

C=CC(=O)Nc1ccc(Nc2ccc(C(F)(F)F)cc2)c(-c2ncccn2)c1 [Compound A-21, N-(3-(pyrimidin-2-yl)-4-(4-(trifluoromethyl)phenylamino)phenyl) Acrylamide]
IC50: 4 nM
